Structures can show the parent of a compound that is named as a salt.
Tests used:
[1] = hygroscopicity / Dynamic Vapor Sorption (DVS) of hydrochloride salt crystal forms; format: physicochemical; conditions: for water absorbed eventually: RH of 90%; for Hygroscopicity: hydrochloride salt of Example 4, result in words; for water uptake: at RH 50%
Description: Differential scanning calorimetry data were collected for each solid form achieved using a DSC (TA instruments, model Q1000) under the following parameters: 50 mL/min purge gas (N2); scan range 40 to 200° C., scan rate 10° C./min. Thermogravimetric analysis data were collected using a TGA instruments (Mettler Toledo, model TGA/SDTA 851e) under the following parameters: 40 ml/min purge gas (N2); scan range 30 to 250° C., scan rate 10° C./min. X-ray data were acquired using an X-ray powder diffractometer (Bruker-axs, model D8 advance) having the following parameters: voltage 40 kV, current 40.0 mA, scan range (2) 5 to 30°, scan step size 0.01°, total scan time 33 minutes, VANTEC detector, and antiscattering slit 1 mm. FIGS. 1-7 show characterization data for hydrochloride salt forms.
Dynamic Vapor Sorption (DVS) was done at 26° C.

[2] = solubility in water of hydrochloride salt crystal forms; format: physicochemical; conditions: result in words
[3] = biological target: T1, rat-alpha 7-nAChR (Rattus norvegicus, UniProt Q05941); assay: functional FLIPR assay, GH4C1 cells stably expressing alpha7 nAChR (intracellular calcium); format: cell-based; conditions: alpha7 nAChR stably expressed in GH4C1 cells; agonist concentration range 0.001 to 30 microM
T1 construct: expressed in transfected cells
T1 sequence (Q05941 23-502): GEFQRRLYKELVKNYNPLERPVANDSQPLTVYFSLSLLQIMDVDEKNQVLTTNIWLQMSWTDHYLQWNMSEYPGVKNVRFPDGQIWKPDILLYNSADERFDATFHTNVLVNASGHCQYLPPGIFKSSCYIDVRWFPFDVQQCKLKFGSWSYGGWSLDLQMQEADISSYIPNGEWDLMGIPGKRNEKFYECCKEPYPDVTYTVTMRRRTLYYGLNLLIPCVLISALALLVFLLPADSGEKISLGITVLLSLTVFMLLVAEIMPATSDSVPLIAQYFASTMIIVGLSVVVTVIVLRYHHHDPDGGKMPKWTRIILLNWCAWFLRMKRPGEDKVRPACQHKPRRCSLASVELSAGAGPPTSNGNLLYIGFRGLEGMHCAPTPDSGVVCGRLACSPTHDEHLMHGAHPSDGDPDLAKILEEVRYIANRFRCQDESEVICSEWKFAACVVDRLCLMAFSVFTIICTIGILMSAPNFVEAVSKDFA
Description: Rat GH4C1 cells were then transfected with the rat receptor, cloned and analyzed for functional alpha 7 nicotinic receptor expression employing a FLIPR assay to measure changes in intracellular calcium concentrations.
The FLIPR system allows the measurements of real time Ca^2+-concentration changes in living cells using a Ca^2+ sensitive fluorescence dye (such as Fluo4). This instrument enables the screening for agonists and antagonists for alpha 7 nAChR channels stably expressed in GH4C1 cells.
GH4C1 cells stably transfected with rat-alpha 7-nAChR (see above) were used. These cells are poorly adherent and therefore pretreatment of flasks and plates with poly-D-lysine was carried out. Cells are grown in 150 cm^2 T-flasks, filled with 30 ml of medium at 37° C. and 5% CO2.
EC50 and IC50 values were calculated using the IDBS XLfit4.1 software package employing a sigmoidal concentration-response (variable slope) equation:
The compounds were tested using the functional FLIPR primary screening assay employing the stable recombinant GH4C1 cell line expressing the alpha 7 nAChR. Hits identified were validated further by generation of concentration-response curves.

**Q.** With `COc1ccc(-c2cc(NC(=O)CCCCN3CCCN(C(C)=O)CC3)[nH]n2)cc1` [Form I, 5-(4-acetyl-1,4-diazepan-1-yl)-N-(5-(4-methoxyphenyl)-1H-pyrazol-3-yl)pentanamide] as the molecule, how does the “relative humidity at which the form picks up moisture” value ([1]; DVS at 26° C.) read?
**A.** The value was “about 50%”.

**Q.** What about the water absorbed eventually ([1]; DVS at 26° C.) of the same molecule?
**A.** Its water absorbed eventually is “up to 2%”.

**Q.** And the moisture gain ([1]; at 70-100% RH, lost without significant hysteresis on decreasing RH)?
**A.** Its moisture gain is “at least 12%”.

**Q.** And the moisture gain ([1]; equilibrated at RH less than or equal to 70%)?
**A.** The moisture gain was “about 0.5%”.

**Q.** And the Hygroscopicity [1]?
**A.** Its Hygroscopicity is “relatively non-hygroscopic”.

**Q.** And the solubility in water [2]?
**A.** The solubility in water was “considerably soluble”.

**Q.** Which results are given for `COc1ccc(-c2cc(NC(=O)CCCCN3CCCN(C(C)=O)CC3)[nH]n2)cc1` [Crystal Form III, 5-(4-Acetyl-[1,4]diazepan-1-yl)-pentanoic acid [5-(4-methoxy-phenyl)-2H-pyrazol-3-yl]-amide]?
**A.** water uptake [1]: (10% water; Hygroscopicity [1]: Hygroscopic

**Q.** What does the source list for `COc1ccc(-c2cc(NC(=O)CCCCN3CCCN(C(C)=O)CC3)[nH]n2)cc1` [Crystal Form V, 5-(4-Acetyl-[1,4]diazepan-1-yl)-pentanoic acid [5-(4-methoxy-phenyl)-2H-pyrazol-3-yl]-amide]?
**A.** water uptake [1]: (7% at RH; Hygroscopicity [1]: Hygroscopic

**Q.** For `C[N+]1(C)CCN(c2ccccc2)CC1` [DMPP], which EC50 [3] is on record?
**A.** Its EC50 is 980 ± 470 nM.

**Q.** With `COc1ccc(-c2cc(NC(=O)CCCCN3CCCN(C(C)=O)CC3)[nH]n2)cc1` [Form II, 5-(4-acetyl-1,4-diazepan-1-yl)-N-(5-(4-methoxyphenyl)-1H-pyrazol-3-yl)pentanamide] as the molecule, how does the “relative humidity at which the form picks up moisture” value ([1]; DVS at 26° C.) read?
**A.** The value was “about 20%”.

**Q.** And the “water held at low RH” value ([1]; RH 0%, DVS at 26° C.)?
**A.** Its value is 2%.

**Q.** What about the water absorbed eventually ([1]; DVS at 26° C.) of the same molecule?
**A.** The water absorbed eventually was “up to 7%”.

**Q.** What about the Hygroscopicity [1] of the same molecule?
**A.** Its Hygroscopicity is “non-hygroscopic”.

**Q.** What about the solubility in water [2] of the same molecule?
**A.** The solubility in water was “considerably soluble”.

**Q.** With `COc1ccc(-c2cc(NC(=O)CCCCN3CCCN(C(C)=O)CC3)n[nH]2)cc1.Cl` [5-(4-acetyl-[1,4]diazepan-1-yl)-pentanoic acid [5-(4-methoxy-phenyl)-1H-pyrazol-3-yl]-amide hydrochloride] as the molecule, how does the Hygroscopicity [1] read?
**A.** Its Hygroscopicity is “extreme hygroscopicity”.

**Q.** With `COc1ccc(-c2cc(NC(=O)CCCCN3CCCN(C(C)=O)CC3)[nH]n2)cc1` (as salt: hydrochloride) [Example 4, 5-(4-Acetyl-[1,4]diazepan-1-yl)-pentanoic acid [5-(4-methoxy-phenyl)-2H-pyrazol-3-yl]-amide] as the molecule, how does the melting point read?
**A.** Its melting point is 132 to 133 °C.

**Q.** For `COc1ccc(-c2cc(NC(=O)CCCCN3CCCN(C(C)=O)CC3)[nH]n2)cc1` (as salt: hydrochloric acid salt) [5-(4-Acetyl-[1,4]diazepan-1-yl)-pentanoic acid [5-(4-methoxy-phenyl)-2H-pyrazol-3-yl]-amide], which melting point is on record?
**A.** Its melting point is 185 °C.

— US20100130474A1 (WYETH, priority 2008, published 2010)
